{
  "source": "patent US20060052459A1",
  "about": "“Antifungal medicaments comprising arylamidine derivatives” (priority 2002, published 2006)",
  "key": {"[1]": {"test_system": "Candida albicans strains IP 48.72 (ATCC 10231)", "assay": "In vitro antifungal growth inhibition on microtitre plates (optical density 590 nm), compounds alone or as mixtures (Wadley method)", "type": "cell-based", "conditions": "for inhibition at 0.026 µg/mL / inhibition at 0.098 µg/mL / inhibition at 0.39 µg/mL / inhibition at 1.562 µg/mL / inhibition at 6.25 µg/mL / inhibition at 25 µg/mL / inhibition at 100 µg/mL / EC50: Candida albicans; for inhibition at 0.026 µg/mL: dose 0.026 μg/ml; for inhibition at 0.098 µg/mL: dose 0.098 μg/ml; for inhibition at 0.39 µg/mL: dose 0.39 μg/ml; for inhibition at 1.562 µg/mL: dose 1.562 μg/ml; for inhibition at 6.25 µg/mL: dose 6.25 μg/ml; for inhibition at 25 µg/mL: dose 25 μg/ml; for inhibition at 100 µg/mL: dose 100 μg/ml", "description": "(§1) The following fungi were used for this study: Candida albicans strains IP 48.72 (ATCC 10231) and Aspergillus fumigatus strain IP 864.64 obtained from the Collection Nationale de Cultures de Microorganismes (CNCM) of the Institut Pasteur. The strains are cultured on Yeast Extract-Peptone-Dextrose (YEPD) agar medium comprising 0.5% yeast extract, 0.5% bactopeptone, 2% glucose and 2% agar at 30° C. and in the dark.\n(§2) All these compounds were prepared in a DMSO solution at a final concentration of 100 mg/ml. The stock solutions are stored at −20° C. up to the time of use.\n(§3) The trials are carried out in RPMI 1640 medium with no sodium bicarbonate, but with L-glutamine buffered with 0.165 mol per litre of 3-[N-morpholino]propanesulphonic acid (MOPS), enriched (<>) or otherwise (<>) with 2% glucose. The pH of this medium is adjusted to 7.0. The medium is sterilized by filtration (0.22 μm) and stored at 4° C. up to the time of use.\n(§4) All the antifungal tests are carried out on microtitre plates. The initial suspensions of spores are prepared in a sterile solution containing 0.85% NaCl, supplemented with Tween 80 at 0.01%. These initial suspensions are then diluted in the culture medium (RPMI 1640 enriched or otherwise with 2% glucose) to a final concentration of 10^4 spores per ml. The measurements of viability of each inoculum are verified by subcultures of a volume of 300 μl on YEPD agar medium.\n(§5) The antifungal compounds are tested in a range of concentrations ranging from 0.026 to 100 μg of active ingredient/ml. These antifungal compounds are then diluted in RPMI 1640 medium enriched or otherwise with 2% glucose. A final DMSO concentration of 0.2% is used throughout the measurements. Each trial is carried out on a series of dilutions of antifungal compounds, in duplicate. The antifungal dilutions (0.1 ml) and the fungal inoculum (0.1 ml) are added to each of the wells of the microtitre plate. The plates are then read with a spectrophotometer (ELX 800UV Bio-Tek Instruments, Inc) at a wavelength of 590 nm. The plates are read immediately after (t=0) and after 48 hours' incubation at 30° C. and in the dark. The optical density values obtained are correlated with fungal growth between the times t=0 and t=48 hours. The optical density values are used to calculate the percentage inhibition of growth for each concentration of antifungals by comparison with the control. The values are then used to plot a dose-response curve and the EC50 value is determined for each fungus and each compound with the aid of the Grafit 5.0® software (Erithacus software Ltd).\n(§6) The method which was used to measure the type of interaction existing between the antifungal compounds in the form of mixtures is the Wadley method.\n(§7) In the Wadley approach, the dose-response curve for each of the compounds A and B, and for the mixture AB, is constructed. The EC50 is calculated for each compound taken individually and for the mixture. If a and b are the absolute quantities of the compounds A and B in the mixture (a=1, b=1, a+b=2 under our conditions), the expected effective concentration (EC50exp) may be calculated in the following manner: EC50exp=(a+b)/[a/EC50A)+b/(EC50B)\n(§8) The Wadley approach may be used to estimate the type of interaction existing between the fungal compounds, regardless of their concentration. Its reliability is not dependent on the percentage inhibition. The type of interaction between two compounds is given by the level of interaction (LI) which corresponds to the ratio between the expected effective concentration (EC50exp) and that observed (EC50obs) of the mixture. The nature of the interaction obtained by the Wadley formula is presented in Table 1 (see U. Gisi, Synergistic interaction in fungicide mixtures, 1996. Phytopathology 86, 1273-1279) below.\n(§9) The experimental conditions are the same as previously described."}, "[2]": {"test_system": "Aspergillus fumigatus strain IP 864.64", "assay": "In vitro antifungal growth inhibition on microtitre plates (optical density 590 nm), compounds alone or as mixtures (Wadley method)", "type": "cell-based", "conditions": "for inhibition at 0.026 µg/mL / inhibition at 0.098 µg/mL / inhibition at 0.39 µg/mL / inhibition at 1.562 µg/mL / inhibition at 6.25 µg/mL / inhibition at 25 µg/mL / inhibition at 100 µg/mL / EC50: Aspergillus fumigatus; for inhibition at 0.026 µg/mL: dose 0.026 μg/ml; for inhibition at 0.098 µg/mL: dose 0.098 μg/ml; for inhibition at 0.39 µg/mL: dose 0.39 μg/ml; for inhibition at 1.562 µg/mL: dose 1.562 μg/ml; for inhibition at 6.25 µg/mL: dose 6.25 μg/ml; for inhibition at 25 µg/mL: dose 25 μg/ml; for inhibition at 100 µg/mL: dose 100 μg/ml", "description": "as §1, §2, §3, §4, §5, §6, §7, §8, §9"}, "[3]": {"conditions": "ATCC10231, 48 h, minimal RPMI 1640 medium (MM), 48 hours at 30° C."}, "[4]": {"conditions": "ATCC10231, 48 h, rich RPMI 1640 medium (RM), 48 hours at 30° C."}, "[5]": {"conditions": "IP864.64, 48 h, minimal RPMI 1640 medium (MM), 48 hours at 30° C."}, "[6]": {"conditions": "IP864.64, 48 h, rich RPMI 1640 medium (RM), 48 hours at 30° C."}},
  "note": "Where two headings read alike, the source gives them in different places.",
  "data": [
    {"molecule": "CCN(C)C=Nc1cc(C)c(Oc2ccc(Cl)c(C(F)(F)F)c2)cc1C", "note": "[Compound I.1, N-ethyl-N-methyl-N′-[4-(4-chloro-3-trifluoromethylphenoxy)-2,5-dimethylphenyl]imidoformamide]", "values": [
      {"measurement": "inhibition at 0.026 µg/mL", "setting": "[1]; [3]", "result": 4.6, "unit": "%"},
      {"measurement": "inhibition at 0.026 µg/mL", "setting": "[1]; [4]", "result": 12.6, "unit": "%"},
      {"measurement": "inhibition at 0.098 µg/mL", "setting": "[1]; [3]", "result": 7, "unit": "%"},
      {"measurement": "inhibition at 0.098 µg/mL", "setting": "[1]; [4]", "result": 27.3, "unit": "%"},
      {"measurement": "inhibition at 0.39 µg/mL", "setting": "[1]; [3]", "result": 46.1, "unit": "%"},
      {"measurement": "inhibition at 0.39 µg/mL", "setting": "[1]; [4]", "result": 43.6, "unit": "%"},
      {"measurement": "inhibition at 1.562 µg/mL", "setting": "[1]; [3]", "result": 96.2, "unit": "%"},
      {"measurement": "inhibition at 1.562 µg/mL", "setting": "[1]; [4]", "result": 96.9, "unit": "%"},
      {"measurement": "inhibition at 6.25 µg/mL", "setting": "[1]; [3]", "result": 98.7, "unit": "%"},
      {"measurement": "inhibition at 6.25 µg/mL", "setting": "[1]; [4]", "result": 99.5, "unit": "%"},
      {"measurement": "inhibition at 25 µg/mL", "setting": "[1]; [3]", "result": 99.2, "unit": "%"},
      {"measurement": "inhibition at 25 µg/mL", "setting": "[1]; [4]", "result": 99.5, "unit": "%"},
      {"measurement": "inhibition at 100 µg/mL", "setting": "[1]; [3]", "result": 98.1, "unit": "%"},
      {"measurement": "inhibition at 100 µg/mL", "setting": "[1]; [4]", "result": 98.8, "unit": "%"},
      {"measurement": "EC50", "setting": "[1]; ATCC10231, 48 h, minimal RPMI 1640 medium (MM), 48 hours at 30° C., used alone, read-out: EC50", "result": 0.41, "unit": "µg/mL"},
      {"measurement": "EC50", "setting": "[1]; ATCC10231, 48 h, rich RPMI 1640 medium (RM), 48 hours at 30° C., used alone, read-out: EC50", "result": 0.3, "unit": "µg/mL"},
      {"measurement": "EC50", "setting": "[1]; ATCC10231, 48 h, second study, strain IP 48.72, RPMI 1640 medium enriched with 2% glucose, 48 hours at 30° C., read-out: EC50", "result": 0.635, "unit": "µg/mL"},
      {"measurement": "EC50", "setting": "[1]; ATCC10231, on minimal (MM) or rich (RM) RPMI 1640 medium, summary in conclusions, read-out: EC50 values", "result": "0.1 to 0.5", "unit": "µg/mL"},
      {"measurement": "activity compared with fluconazole (compound II.1)", "setting": "[1]; MM or RM medium", "result": "at least equivalent"},
      {"measurement": "inhibition at 0.026 µg/mL", "setting": "[2]; [5]", "result": 1, "unit": "%"},
      {"measurement": "inhibition at 0.026 µg/mL", "setting": "[2]; [6]", "result": 2.24, "unit": "%"},
      {"measurement": "inhibition at 0.098 µg/mL", "setting": "[2]; [5]", "result": 57.9, "unit": "%"},
      {"measurement": "inhibition at 0.098 µg/mL", "setting": "[2]; [6]", "result": 23.1, "unit": "%"},
      {"measurement": "inhibition at 0.39 µg/mL", "setting": "[2]; [5]", "result": 80.1, "unit": "%"},
      {"measurement": "inhibition at 0.39 µg/mL", "setting": "[2]; [6]", "result": 51.1, "unit": "%"},
      {"measurement": "inhibition at 1.562 µg/mL", "setting": "[2]; [5]", "result": 94.6, "unit": "%"},
      {"measurement": "inhibition at 1.562 µg/mL", "setting": "[2]; [6]", "result": 97.4, "unit": "%"},
      {"measurement": "inhibition at 6.25 µg/mL", "setting": "[2]; [5]", "result": 97.1, "unit": "%"},
      {"measurement": "inhibition at 6.25 µg/mL", "setting": "[2]; [6]", "result": 98.1, "unit": "%"},
      {"measurement": "inhibition at 25 µg/mL", "setting": "[2]; [5]", "result": 98.4, "unit": "%"},
      {"measurement": "inhibition at 25 µg/mL", "setting": "[2]; [6]", "result": 98.1, "unit": "%"},
      {"measurement": "inhibition at 100 µg/mL", "setting": "[2]; [5]", "result": 98.1, "unit": "%"},
      {"measurement": "inhibition at 100 µg/mL", "setting": "[2]; [6]", "result": 97.4, "unit": "%"},
      {"measurement": "EC50", "setting": "[2]; IP864.64, 48 h, minimal RPMI 1640 medium (MM), 48 hours at 30° C., used alone, read-out: EC50", "result": 0.1, "unit": "µg/mL"},
      {"measurement": "EC50", "setting": "[2]; IP864.64, 48 h, rich RPMI 1640 medium (RM), 48 hours at 30° C., used alone, read-out: EC50", "result": 0.31, "unit": "µg/mL"},
      {"measurement": "EC50", "setting": "[2]; IP864.64, 48 h, second study, strain IP 864.64, RPMI 1640 medium enriched with 2% glucose, 48 hours at 30° C., read-out: EC50", "result": 0.179, "unit": "µg/mL"},
      {"measurement": "EC50", "setting": "[2]; IP864.64, on minimal (MM) or rich (RM) RPMI 1640 medium, summary in conclusions, read-out: EC50 values", "result": "0.1 to 0.5", "unit": "µg/mL"},
      {"measurement": "activity compared with itraconazole (compound II.2)", "setting": "[2]; MM or RM medium", "result": "equivalent"},
      {"measurement": "EC50 compared with that of compound II.2", "setting": "[2]; second study, IP 864.64, enriched medium", "result": "similar"}
    ]}
  ]
}
